Source: patent US12698507B2, “Methods and compositions for conferring and/or enhancing herbicide tolerance using protoporphyrinogen IX oxidase of various cyanobacteria or variant thereof” (FarmHannong Co., Ltd., priority 2019, dated 2026)
Like-named read-outs stand apart in the source and are kept apart here.

Assays:
[1] = test system: PPO-deficient BT3 E. coli (ΔPPO) transformed with CyPPO18 variant A167L+V305M+F360M (Thermosynechococcus vulcanus NIES-2134, SEQ ID NO: 3); format: cell-based; parameters: key to the marks not given beside the values; conditions: LB agar, 0 to 2,000 μM herbicide, 37° C., 16-20 hours
Excerpt: (§1) To enhance the PPO-inhibiting herbicide resistance of CyPPO19 and CyPPO18, PPO variant genes of the above example 2 were constructed. They were transformed to BT3 (ΔPPO) strain which is deficient of PPO activity and cultured in LB media with PPO-inhibiting herbicide, thereby examining whether growth of transformed BT3 was not inhibited.
(§2) BT3 competent cells were transformed with the pET303-CyPPO19 (wild type), pET303-CyPPO18 (wild type) plasmids, and those with a mutation(s) constructed (refer to example 2) via heat shock method, and were cultured in LB agar media containing ampicillin.
(§3) Single colony transformed with each CyPPO gene was cultured in 3 mL of LB broth (LPSS) containing ampicillin for more than 12 hours, and then was subcultured in LB broth until absorbance (OD600) reached 0.5 to 1. Then, it was diluted with LB broth to OD600=0.5. Again, the diluted solution was serially diluted 4 times by a factor of one tenth. […]
(§4) Then, 10 μL of each diluted solution of E. coli was dropped on the plate and cultured at 37° C. under dark for 16-20 hours. PPO-inhibiting herbicide resistance was evaluated with the extent of E. coli growth containing each gene was observed.
(§5) The extent of herbicide resistance was evaluated by the relative growth of variants to that of wild type, and listed in Tables 9 and 10 and FIGS. 3 to 32. […]

[2] = test system: PPO-deficient BT3 E. coli (ΔPPO) transformed with CyPPO18 variant L327T+F360M (Thermosynechococcus vulcanus NIES-2134, SEQ ID NO: 3); experiment: Herbicide tolerance test in E. coli, CyPPO18 L327T+F360M; format: cell-based; parameters: key to the marks not given beside the values; conditions: LB agar, 0 to 2,000 μM herbicide, 37° C., 16-20 hours
Excerpt: as §1, §2, §3, §4, §5

[3] = target: Thermosynechococcus elongatus PKUAC-SCTE542 protoporphyrinogen IX oxidase CyPPO19 (SEQ ID NO: 1) variant V305L (MBP fusion) (Thermosynechococcus sichuanensis, UniProt A0A7D6JSC1, V305L); experiment: PPO enzyme inhibition assay (IC50 for herbicides), CyPPO19 V305L fused to MBP; format: biochemical
[4] = target: Thermosynechococcus vulcanus NIES-2134 protoporphyrinogen IX oxidase CyPPO18 (SEQ ID NO: 3) variant L327T (MBP fusion) (Thermosynechococcus vestitus, UniProt Q8DLV2, L327T); experiment: PPO enzyme inhibition assay (IC50 for herbicides), CyPPO18 L327T fused to MBP; format: biochemical; conditions: 50 μM protoporphyrinogen IX, pH 7.5, room temperature, 30 min
[5] = test system: PPO-deficient BT3 E. coli (ΔPPO) transformed with CyPPO19 variant R89A+F360M (Thermosynechococcus elongatus PKUAC-SCTE542, SEQ ID NO: 1); experiment: Herbicide tolerance test in E. coli, CyPPO19 R89A+F360M; format: cell-based; conditions: LB agar, 0 to 2,000 μM herbicide, 37° C., 16-20 hours
Excerpt: as §1, §2, §3, §4, §5

[6] = test system: PPO-deficient BT3 E. coli (ΔPPO) transformed with CyPPO19 variant R89A+F360V (Thermosynechococcus elongatus PKUAC-SCTE542, SEQ ID NO: 1); experiment: Herbicide tolerance test in E. coli, CyPPO19 R89A+F360V; format: cell-based; conditions: LB agar, 0 to 2,000 μM herbicide, 37° C., 16-20 hours
Excerpt: as §1, §2, §3, §4, §5

[7] = target: Thermosynechococcus vulcanus NIES-2134 protoporphyrinogen IX oxidase CyPPO18 (SEQ ID NO: 3) variant V165C (MBP fusion) (Thermosynechococcus vestitus, UniProt Q8DLV2, V165C); format: biochemical; conditions: 50 μM protoporphyrinogen IX, pH 7.5, room temperature, 30 min
Sequence of Thermosynechococcus vulcanus NIES-2134 protoporphyrinogen IX oxidase CyPPO18 (SEQ ID NO: 3) variant V165C (MBP fusion) (Q8DLV2 entry or part of it V165C): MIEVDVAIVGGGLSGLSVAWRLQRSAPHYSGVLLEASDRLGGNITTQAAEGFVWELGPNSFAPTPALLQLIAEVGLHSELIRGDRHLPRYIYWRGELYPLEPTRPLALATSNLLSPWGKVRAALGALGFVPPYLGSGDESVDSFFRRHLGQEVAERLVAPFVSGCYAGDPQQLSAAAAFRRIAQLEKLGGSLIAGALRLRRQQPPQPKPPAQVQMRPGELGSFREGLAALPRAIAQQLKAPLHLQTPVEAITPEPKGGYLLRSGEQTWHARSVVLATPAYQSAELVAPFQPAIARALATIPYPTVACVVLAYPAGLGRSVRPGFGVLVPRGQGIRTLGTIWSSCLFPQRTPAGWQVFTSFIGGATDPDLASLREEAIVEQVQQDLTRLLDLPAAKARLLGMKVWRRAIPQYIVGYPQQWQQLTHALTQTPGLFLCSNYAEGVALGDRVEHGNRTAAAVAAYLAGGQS

Sequence of Thermosynechococcus vulcanus NIES-2134 protoporphyrinogen IX oxidase CyPPO18 (SEQ ID NO: 3) variant L327T (MBP fusion) (Q8DLV2 entry or part of it L327T): as the sequence (Q8DLV2 entry or part of it V165C) above, with C165V, L327T counted along it
Sequence of Thermosynechococcus elongatus PKUAC-SCTE542 protoporphyrinogen IX oxidase CyPPO19 (SEQ ID NO: 1) variant V305L (MBP fusion) (A0A7D6JSC1 entry or part of it V305L): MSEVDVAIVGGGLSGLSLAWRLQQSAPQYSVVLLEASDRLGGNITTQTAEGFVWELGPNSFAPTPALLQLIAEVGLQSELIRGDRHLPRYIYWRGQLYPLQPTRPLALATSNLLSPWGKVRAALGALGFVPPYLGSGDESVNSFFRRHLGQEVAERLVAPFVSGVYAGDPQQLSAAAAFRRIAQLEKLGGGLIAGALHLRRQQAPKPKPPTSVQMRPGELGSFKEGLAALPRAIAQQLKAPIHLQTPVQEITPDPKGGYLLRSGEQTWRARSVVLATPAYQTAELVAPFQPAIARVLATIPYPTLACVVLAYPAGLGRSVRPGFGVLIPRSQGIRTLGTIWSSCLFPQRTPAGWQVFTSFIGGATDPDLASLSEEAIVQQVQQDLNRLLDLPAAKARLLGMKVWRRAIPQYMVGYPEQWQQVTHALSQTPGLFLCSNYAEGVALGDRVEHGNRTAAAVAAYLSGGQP

| Compound | tolerance level (relative growth of variant to wild type) [1] | tolerance level (relative growth of variant to wild type) [2] | IC50 [3] [nM] | IC50 [4] [nM] | tolerance level (relative growth of variant to wild type) [5] | tolerance level (relative growth of variant to wild type) [6] | IC50 [7] [nM] | IC50 ([3]; CyPPO19 V305L, 50 μM protoporphyrinogen IX, pH 7.5, room temperature, 30 min) [nM] |
| --- | --- | --- | --- | --- | --- | --- | --- | --- |
| CCOc1cc(Oc2ccc(C(F)(F)F)cc2Cl)ccc1[N+](=O)[O-] [Oxyfluorfen] | ++ | ++ | 793 | 3600 | + | + | 502 |  |
| Cc1nn(-c2cc(CC(Cl)C(=O)O)c(Cl)cc2F)c(=O)n1C(F)F (centres unmarked) [Carfentrazone] | ++ | ++ |  | 723 | + | + | 1220 | 1330 |
